Measured values: ChEMBL document CHEMBL1201862, “PubChem BioAssay data set” (2004)
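Growth conditions: 96-well plates. Treatment: test compound, 48 hours, 5 concentrations. Analysis: linear interpolation between bracketing concentrations; unreached endpoints set to highest concentration. GI50 = concentration required for 50% inhibition of growth.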 Calls of active or inactive are those of the source. Rule as the data show it: active = GI50 up to about 1.1 µM and inactive = higher.

What was measured:
Assay in all cases: NCI-60 cell line screen, 48 h
[1] = tested on: 786-0
[2] = tested on: A498
[3] = tested on: A549
[4] = tested on: ACHN
[5] = tested on: CAKI-1
[6] = tested on: CCRF-CEM
[7] = tested on: COLO 205
[8] = tested on: DMS-114
[9] = tested on: EKVX
[10] = tested on: HCC 2998
[11] = tested on: HCT-116
[12] = tested on: HCT-15
[13] = tested on: HL-60
[14] = tested on: HOP-62
[15] = tested on: HOP-92
[16] = tested on: HT-29
[17] = tested on: IGROV-1
[18] = tested on: K562
[19] = tested on: KM-20L2
[20] = tested on: KM12
[21] = tested on: LOX IMVI
[22] = tested on: LXFL 529
[23] = tested on: M14
[24] = tested on: M19-MEL
[25] = tested on: MOLT-4
[26] = tested on: Malme-3M
[27] = tested on: NCI-H226
[28] = tested on: NCI-H23
[29] = tested on: NCI-H460
[30] = tested on: NCI-H522
[31] = tested on: OVCAR-3
[32] = tested on: OVCAR-4
[33] = tested on: OVCAR-5
[34] = tested on: OVCAR-8
[35] = tested on: RPMI-8226
[36] = tested on: SF-268
[37] = tested on: SF-295
[38] = tested on: SF-539
[39] = tested on: SK-MEL-28
[40] = tested on: SK-MEL-2
[41] = tested on: SK-MEL-5
[42] = tested on: SK-OV-3
[43] = tested on: SN12C
[44] = tested on: SNB-19
[45] = tested on: SNB-78
[46] = tested on: SR
[47] = tested on: SW-620
[48] = tested on: TK-10
[49] = tested on: U-251
[50] = tested on: UACC-257
[51] = tested on: UACC-62
[52] = tested on: UO-31
[53] = tested on: DLD-1
[54] = tested on: RXF 393
[55] = tested on: SNB-75

Compound: CN/N=C(/Cc1occc(=O)c1O)C(=O)Nc1ccc(C)c(C)c1
- GI50 [1]: > 100 µM (inactive)
- GI50 [2]: > 100 µM (inactive)
- GI50 [3]: > 100 µM (inactive)
- GI50 [4]: > 100 µM (inactive)
- GI50 [5]: > 100 µM (inactive)
- GI50 [6]: > 100 µM (inactive)
- GI50 [7]: > 100 µM (inactive)
- GI50 [8]: > 100 µM (inactive)
- GI50 [9]: > 100 µM (inactive)
- GI50 [10]: > 100 µM (inactive)
- GI50 [11]: > 100 µM (inactive)
- GI50 [12]: > 100 µM
- GI50 [13]: > 100 µM (inactive)
- GI50 [14]: > 100 µM (inactive)
- GI50 [15]: > 100 µM (inactive)
- GI50 [16]: > 100 µM (inactive)
- GI50 [17]: > 100 µM (inactive)
- GI50 [18]: > 100 µM (inactive)
- GI50 [19]: > 100 µM (inactive)
- GI50 [20]: > 100 µM (inactive)
- GI50 [21]: > 100 µM (inactive)
- GI50 [22]: > 100 µM (inactive)
- GI50 [23]: > 100 µM (inactive)
- GI50 [24]: > 100 µM (inactive)
- GI50 [25]: > 100 µM (inactive)
- GI50 [26]: > 100 µM (inactive)
- GI50 [27]: > 100 µM (inactive)
- GI50 [28]: > 100 µM (inactive)
- GI50 [29]: > 100 µM (inactive)
- GI50 [30]: > 100 µM (inactive)
- GI50 [31]: > 100 µM (inactive)
- GI50 [32]: > 100 µM (inactive)
- GI50 [33]: > 100 µM (inactive)
- GI50 [34]: > 100 µM (inactive)
- GI50 [35]: > 100 µM (inactive)
- GI50 [36]: > 100 µM (inactive)
- GI50 [37]: > 100 µM (inactive)
- GI50 [38]: > 100 µM (inactive)
- GI50 [39]: > 100 µM (inactive)
- GI50 [40]: > 100 µM (inactive)
- GI50 [41]: > 100 µM (inactive)
- GI50 [42]: > 100 µM (inactive)
- GI50 [43]: > 100 µM (inactive)
- GI50 [44]: > 100 µM (inactive)
- GI50 [45]: 60.1 µM (inactive)
- GI50 [46]: > 100 µM (inactive)
- GI50 [47]: > 100 µM (inactive)
- GI50 [48]: > 100 µM (inactive)
- GI50 [49]: > 100 µM (inactive)
- GI50 [50]: > 100 µM (inactive)
- GI50 [51]: > 100 µM (inactive)
- GI50 [52]: > 100 µM (inactive)

Compound: CC1=C(C(=O)Nc2cc(F)c(F)cc2F)C(c2ccc([N+](=O)[O-])cc2)C(C(=O)Nc2cc(F)c(F)cc2F)=C(C)N1
- GI50 [1]: 42.7 µM (inactive)
- GI50 [2]: 18.2 µM (inactive)
- GI50 [3]: 37.8 µM (inactive)
- GI50 [4]: 27.1 µM (inactive)
- GI50 [5]: 18.5 µM (inactive)
- GI50 [6]: 16.5 µM (inactive)
- GI50 [7]: 71.4 µM (inactive)
- GI50 [53]: 30.5 µM (inactive)
- GI50 [8]: 15.3 µM (inactive)
- GI50 [9]: 13.9 µM (inactive)
- GI50 [10]: 21.4 µM (inactive)
- GI50 [11]: 25.8 µM (inactive)
- GI50 [13]: 11.2 µM (inactive)
- GI50 [14]: 19.6 µM (inactive)
- GI50 [15]: 12.8 µM (inactive)
- GI50 [16]: 34.1 µM (inactive)
- GI50 [17]: 28.2 µM (inactive)
- GI50 [18]: 24.2 µM (inactive)
- GI50 [19]: 37.9 µM (inactive)
- GI50 [20]: 29.3 µM (inactive)
- GI50 [21]: 80.2 µM (inactive)
- GI50 [22]: 39.7 µM (inactive)
- GI50 [23]: 54.2 µM (inactive)
- GI50 [24]: 57.7 µM (inactive)
- GI50 [25]: 15 µM (inactive)
- GI50 [26]: 27.2 µM (inactive)
- GI50 [27]: 37.8 µM (inactive)
- GI50 [28]: 31.8 µM (inactive)
- GI50 [29]: 43.9 µM (inactive)
- GI50 [30]: 15.7 µM (inactive)
- GI50 [31]: 19.1 µM (inactive)
- GI50 [32]: 18.5 µM (inactive)
- GI50 [33]: 35 µM (inactive)
- GI50 [34]: 33.8 µM (inactive)
- GI50 [35]: 14 µM (inactive)
- GI50 [54]: 10.6 µM (inactive)
- GI50 [36]: 22.2 µM (inactive)
- GI50 [37]: 56.1 µM (inactive)
- GI50 [38]: 29.3 µM (inactive)
- GI50 [39]: 42.7 µM (inactive)
- GI50 [40]: 18 µM (inactive)
- GI50 [41]: 23.6 µM (inactive)
- GI50 [42]: 54.5 µM (inactive)
- GI50 [43]: 40.7 µM (inactive)
- GI50 [44]: 48.6 µM (inactive)
- GI50 [55]: 8.26 µM (inactive)
- GI50 [45]: 26.1 µM (inactive)
- GI50 [47]: 48.2 µM (inactive)
- GI50 [48]: 22.5 µM (inactive)
- GI50 [49]: 30.7 µM (inactive)
- GI50 [50]: 28.7 µM (inactive)
- GI50 [52]: 13.1 µM (inactive)
